Results reported in patent publication EP1080165B1, “HYDROCARBON LIQUID FORMULATION” (MACFARLAN SMITH LIMITED, priority 1998, dated 1999).
Values belong to the compound of their own block, whether it stands above or below them.

What was measured:
[1] = Evaluation of co-solvents for a clear stable formulation of denatonium benzoate in lamp oil; assay type: physicochemical; set-up: key to Assessment: Those combinations marked as "FAIL" were observed to exhibit turbidity and insufficient stability in the amount of denaturant introduced to the lamp oil; PASS: success in obtaining a clear stable formulation of the preferred denaturant; conditions: for Assessment: clear stable formulation of denatonium benzoate/"BITREX" in lamp oil, only the co-solvent varied
Excerpt: The following Table I summarises the results of this evaluation stage, and in particular assesses the success in obtaining a clear stable formulation of the preferred denaturant (denatonium benzoate/ "BITREX"®) in a target commercial product to be denatured (lamp oil). […] In each case, the only critical variation lay in the selection of the co-solvent. Apart from the attempted use of rape seed oil, it is assumed that the co-solvent is essentially a single chemical entity.
(§1) As an illustrative example of procedure, one may prepare a 40ppm "BITREX®" doped lamp oil by simply stirring in a previously prepared 0.1% solution of "BITREX®" in the selected co-solvent TEXANOL® to a level of 4% (all amounts described herein are w/w). A similar procedure was found effective in denaturing, white spirit, dearomatised white spirit, and isoparaffin.

[2] = Denaturing of other liquid hydrocarbons with a BITREX solution in TEXANOL; assay type: physicochemical; conditions: 0.1% solution of BITREX in co-solvent stirred in; white spirit, dearomatised white spirit and isoparaffin
Excerpt: as §1

[3] = Alkanol co-solvents enabling introduction of BITREX at the desired level; assay type: physicochemical; conditions: co-solvent for BITREX in liquid hydrocarbon
[4] = cited from earlier work
[5] = as low as; cited from earlier work

Compound: 2,2,4-trimethylpentan-1,3-diol-monoisobutanoate
Assessment [1]: PASS | effectiveness in achieving the objective of the invention ([1]; denatonium benzoate in lamp oil, summary of Table I): highly effective | effective in denaturing [2]: effective

effective in enabling introduction of the preferred aversive agent "BITREX" at the desired level [3]: effective
Compound: CCCCCCCCCCCCCCCCO [1-hexadecanol]

effective in enabling introduction of the preferred aversive agent "BITREX" at the desired level [3]: effective
Compound: CCCCCCCCO [1-octanol]

Assessment [1]: FAIL
Compound: CCCCC(CC)COC(=O)C(CC)CCCC (centres unmarked) [2-Ethylhexyl-2-ethylhexanoate]

Assessment [1]: FAIL
Compound: CCCCCCCCCCCC(=O)OCC(CC)CCCC (centres unmarked) [2-Ethylhexyllaurate]

Assessment [1]: FAIL
Compound: CCCCCCCCCC(=O)OC(C)C [Isopropyldecanoate]

Assessment [1]: FAIL
Compound: CCCCCCCCCCCC(=O)OC(C)C [Isopropyllaurate]

Compound: CC[N+](CC)(CC(=O)Nc1c(C)cccc1C)Cc1ccccc1 [denatonium benzoate, Denatonium benzoate]
solubility in apolar liquids [4]: extremely insoluble | concentration giving an acceptable level of aversive activity [5]: 10 ppm
